According to patent publication US20220046925A1, “METHOD OF CONTROLLING PESTS BY SEED TREATMENT APPLICATION OF A MESOIONIC COMPOUND OR MIXTURE THEREOF” (BASF SE, priority 2018, published 2022):
Where two headings read alike, the source gives them in different places. Marks after values point to notes of the source that are not given here.

Legend:
Assay type in all cases: in vivo
Rhopalosiphum padi = test: Barley seed treatment against bird cherry oat aphid; conditions: 100 g ai/100 kg seed, first true leaf stage
Procedure: Barley seed treatment: Technical material was dissolved in DMSO. Twenty barely seeds were treated with a vortex method and planted in a pot (2×2 inch) filled with Rediearth soil. One seed was planted per pot and the pots were arranged in a completely randomized design, held in the greenhouse, and top-watered and fertilized daily. Four seedlings were taken from each cotyledon & true leaf treatment samples. DMSO solvent blank were used as positive and negative treatments, respectively. The true leaf stage was infested 14 days after planting (DAP). Ten bird cherry-oat aphids of mixed stages were transferred individually to each plant with a paint brush. Six replicates were set up for each treatment. After infestation, plants were kept on a light cart at room temperature and bottom watered until evaluated. The number of live aphids at 4 days after infestation (4DAI) was recorded, and means were calculated for each treatment. Percent control was calculated as the percent reduction in live aphids relative to the solvent blank.

Elasmopalpus sp = test: Soybean seed treatment against lesser corn stalkborer (cage)
Procedure: Soybean seed treatment: Soybean seeds were treated with Compound I-R-1. The treated seeds were sown inside an enclosed cage, in two lines at 29 seeds/cage. Thirty-five 3rd instar larvae of Elasmopalpus sp were introduced into each cage at six days after sowing. The number of dead and live plants were counted periodically.

Frankliniella fusca [1] = test: Peanut seed treatment against tobacco thrips (field)
Procedure: Peanut seed treatment: Field trials were laid out. Treated peanut seeds were sown in 8 sq m plots using 4 replications. Feeding damage was assessed at 28 and 35 days after treatment.

Dichelops melacanthus = test: Corn seed treatment against green belly stink bug (cage); conditions: for mortality at 30 g/ha: Dichelops melacanthus
Procedure: Corn seed treatment: Corn seeds were treated with Compound I-R-1. The treated seeds were sown inside an enclosed cage, at 16 seeds/cage. Twenty-four stinkbugs, were introduced into each cage. The number of dead and live stinkbugs were counted periodically.

Frankliniella fusca [2] = test: Cotton seed treatment against tobacco thrips (field)
Procedure: Cotton seed treatment: Field studies were carried out against tobacco thrips using cotton seeds treated with 0.375 mg ai/seed of Compound I-R-1. Treated Seeds were sown in 30 sq m plots. There were 4 replications for each treatment. Feeding damage was assessed at 5 and 7 days after planting (DAP).

Phyllotreta striolata = test: Canola seed treatment against striped flea beetle; conditions: rate 400 (unit not given), 300 g ai/L formulation, cotyledon stage
Procedure: Canola seed treatment: Formulation was diluted in water to make appropriate concentration according to needs. Canola seeds with pre-coating inert ingredients were treated with diluted solution by vortex methods. Treated seeds were dried in ventilating chemical hood. After dry, three seeds were planted per pot (2×2 inch) at a depth of 1 cm, which were filled with Patio sand and watered prior to treatment and planting. The pots were arranged in a completely randomized design, kept in the greenhouse, and automatically top-watered and fertilized daily (NPK 16-4-20-3(Ca)-1(Mg)). At the cotyledon stage [˜7 days after treatment (DAT)], plants were thinned to 1 plant per pot. One set of plants was infested at the cotyledon stage and another set at the first true-leaf stage. Both cotyledons of a single plant were excised, and true leaves were sampled using a ⅝″ (1.59-cm) diameter leaf disc. Leaf samples were placed on a piece of 47-mm filter paper moistened with 0.225 mL distilled water in a 50-mm Petri dish. Five flea beetles were then infested into the petri dish. The dishes were held in an incubator at 27° C., 60% RH, and a 16L:8D light cycle. Five days after infestation (DAI), the numbers of live, moribund, and dead flea beetles were recorded, as well as % feeding damage (via visual estimate). […] Percent mortality was calculated for each treatment, with moribund insects classified as alive.

[3] = system: Frankliniella occidentalis (FRANOC); test: Cotton seed treatment with mixtures against Frankliniella occidentalis (Colby synergy); conditions: 7DAI
Source text: (§1) When the observed combined control effect is greater than the expected combined control effect (E), then the combined effect is synergistic.
(§2) Sub-lethal rates were predetermined by rate rundown. Formulations were combined and diluted in water and applied to cotton seeds which were allowed to dry. Seeds were then planted and grown in a greenhouse. At the cotyledon stage, western flower thrips (Frankliniella occidentalis) adults were infested onto each plant and held under laboratory conditions. Replication was 5×. Seven and 14 days after infestation, percent damage was visually assessed, and means were calculated for each treatment. Percent control was calculated as the percent reduction in live aphids relative to the solvent blank (Sun-Shepard method).

[4] = system: Leptinotarsa decimlineata; test: Potato seed piece treatment against Colorado potato beetle
Procedure: 8. Potato—Colorado Potato Beetle (Leptinotarsa decimlineata) Potato seed piece treatment: Seed potatoes were treated by spraying. After application, potatoes were allowed to dry prior to planting. The plots were laid out in 6-meter rows with 4 replications. Feeding damage assessments were taken at 42 and 50 days after planting.

[5] = system: Rhopalosiphum padi (RHOPPA); test: Barley seed treatment with mixtures against Rhopalosiphum padi (Colby synergy); conditions: cotyledon stage, 4 days after infestation
Source text: as §1
as §2, with “barley” for “cotton”, “bird cherry-oat aphids (Rhopalosiphum padi) of mixed stages” for “western flower thrips (Frankliniella occidentalis) adults”, “6×. Four” for “5×. Seven and 14”, “the number of live aphids on each plant” for “percent damage”, “recorded,” for “visually assessed,”

Myzus persicae = test: Sugarbeet seed treatment against green peach aphid
Procedure: Sugarbeet seed treatment: Seeds were treated in according to desired rates. Seeds were planted (one per pot) at a depth of 1.5 cm in 3×3 in (58.0644 cm2) pots that were filled with RediEarth soil and moistened prior to planting. Pots were held in a completely randomized design in the greenhouse and automatically top watered and fertilized [NPK 16-4-20-3(Ca)-1(Mg)] daily (4 min, 4× a day) until infestation. A set of plants was infested 7, 14, 21 and 28 days after treatment (DAT). Thirty aphids were transferred individually to each plant with a paint brush. After infestation, plants were kept on a light cart at room temperature with continuous light and bottom watered until evaluation. Six days after infestation (DAI), the number of live aphids was recorded, and means were calculated for each treatment. Percent control was calculated as the percent reduction in live aphids relative to the solvent blank.

C[n+]1c([O-])c(-c2ccccc2)c(=O)n2c1SC[C@@H]2c1cnc(Cl)s1 (single isomer, unassigned) [Compound I-R-1]
Mean % Population Reduction (18 DAP, 4DAI) (Rhopalosiphum padi): ≥90% | efficacy against Elasmopalpus sp. in terms of plant protection (in words) (Elasmopalpus sp): good efficacy | Number of dead plants/plot, A03 (Elasmopalpus sp; 50 g ai/ha, assessment A03): 1.50 a | Number of dead plants/plot, A07 (Elasmopalpus sp; 50 g ai/ha, assessment A07): 4.50 ab | Number of dead plants/plot, A14 (Elasmopalpus sp; 50 g ai/ha, assessment A14): 5.25 b | Number of dead plants/plot, A21 (Elasmopalpus sp; 50 g ai/ha, assessment A21): 6.75 b | efficacy against F. fusca in terms of reduction in feeding damage (in words) (Frankliniella fusca [1]): good efficacy | Feeding damage (%), A28 (Frankliniella fusca [1]; 0.68 mg ai/seed, field, 28 days after treatment): 13.0 b % | Feeding damage (%), A35 (Frankliniella fusca [1]; 0.68 mg ai/seed, field, 35 days after treatment): 13.5 b % | mortality at 30 g/ha (Dichelops melacanthus; read-out: Percentage mortality (%), A01): 5.4% | mortality at 30 g/ha (Dichelops melacanthus; read-out: Percentage mortality (%), A03): 24.6% | mortality at 30 g/ha (Dichelops melacanthus; read-out: Percentage mortality (%), A07): 13% | mortality at 30 g/ha (Dichelops melacanthus; read-out: Percentage mortality (%), A14): 35.3% | mortality at 30 g/ha (Dichelops melacanthus; read-out: Percentage mortality (%), A21): 61.5% | efficacy against green belly stink bug (in words) (Dichelops melacanthus; corn seed treatment): good efficacy | efficacy against F. fusca in terms of reduction in feeding damage (in words) (Frankliniella fusca [2]): excellent efficacy | Feeding damage (%), 5 DAP (Frankliniella fusca [2]; 0.375 mg ai/seed, field, 5 DAP): 6.0 b % | Feeding damage (%), 7 DAP (Frankliniella fusca [2]; 0.375 mg ai/seed, field, 7 DAP): 12.5 c % | Mean % feeding damage (5DAI, 13DAP) (Phyllotreta striolata; 5DAI, 13DAP): 19^b % | Mean % Feeding Damage Reduction Relative to SB (Phyllotreta striolata; relative to solvent blank): 58% | % activity (feeding damage reduction), solo application ([3]; use rate 0.375 (head: g ai/100 kg seeds)): 19% | efficacy against L. decimlineata regarding reduction in feeding damage (in words) [4]: good efficacy | Feeding damage, A42 ([4]; 400 g ai/ha, 42 days after planting): 3.0 b | Feeding damage, A50 ([4]; 400 g ai/ha, 50 days after planting): 11.3 bc | % activity (population reduction), solo application ([5]; 5 g ai/100 kg seeds): 46% | % activity (population reduction), solo application ([5]; 14 g ai/100 kg seeds): 59% | Mean % Population Reduction Relative to SB @ 6DAI, 7 DAP (Myzus persicae; sugar beet seed treatment, 80 g ai/1 kg seed, infested 7 DAP, 6DAI): 100% | Mean % Population Reduction Relative to SB @ 6DAI, 14 DAP (Myzus persicae; sugar beet seed treatment, 80 g ai/1 kg seed, infested 14 DAP, 6DAI): ≥90% | Mean % Population Reduction Relative to SB @ 6DAI, 21 DAP (Myzus persicae; sugar beet seed treatment, 80 g ai/1 kg seed, infested 21 DAP, 6DAI): ≥90% | Mean % Population Reduction Relative to SB @ 6DAI, 28 DAP (Myzus persicae; sugar beet seed treatment, 80 g ai/1 kg seed, infested 28 DAP, 6DAI): ≥90% | activity against green peach aphid by sugarbeet seed treatment (in words) (Myzus persicae; sugarbeet seed treatment): excellent activity | activity as far as 4 weeks after plant (in words) (Myzus persicae; sugarbeet seed treatment, 4 weeks after plant): excellent activity

O=C1C=C(N(Cc2ccc(Cl)nc2)CC(F)F)CO1 [Flupyradifurone]
% activity (population reduction), solo application ([5]; 21 g ai/100 kg seeds): 36%

CN1COCN(Cc2cnc(Cl)s2)/C1=N\[N+](=O)[O-] [thiamethoxam, reference compound]
% activity (feeding damage reduction), solo application ([3]; use rate 0.300 (head: g ai/100 kg seeds)): 37%

CCN(C(=O)c1cnn(C(C)C(C)C)c1C)c1ccnnc1 (stereo not drawn) [Dimpropyridaz, 1-(1,2-dimethylpropyl)-N-ethyl-5-methyl-N-pyridazin-4-yl-pyrazole-4-carboxamide]
% activity (population reduction), solo application ([5]; 18 g ai/100 kg seeds): 5% | % activity (population reduction), solo application ([5]; 46 g ai/100 kg seeds): 11%
